From the supplement of paper PMC10307832

Experiments:
Test in all cases: relative viability (nuclei count vs DMSO), 5 days (fraction); higher = more cells survive
Vemurafenib + Vorinostat = compound: CCCS(=O)(=O)Nc1ccc(F)c(C(=O)c2c[nH]c3ncc(-c4ccc(Cl)cc4)cc23)c1F [Vemurafenib] + O=C(CCCCCCC(=O)Nc1ccccc1)NO [Vorinostat] (partner 1 µM)
Summary of the method: (§1)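 For relative viability, nuclei counts in treated wells were divided by those in vehicle wells. Lung cancer cell lines had been pin-tool dosed in 1536-well plates the day after seeding and cultured for 5 days, then fixed and stained in one step (final 0.05% Triton X-100, 1% formaldehyde, 1 ug/ml Hoechst) and imaged at 4×. Doses were one drug alone or a fixed anchor-drug dose plus five library-drug doses (not always all listed) in √10 steps, and values are duplicate-plate medians.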

OSI-027 + Dasatinib = compound: COc1cccc2cc(-c3nc([C@H]4CC[C@H](C(=O)O)CC4)n4ncnc(N)c34)[nH]c12 [OSI-027] + Cc1nc(Nc2ncc(C(=O)Nc3c(C)cccc3Cl)s2)cc(N2CCN(CCO)CC2)n1 [Dasatinib] (partner 0.075 µM)
Summary of the method: as §1

OSI-027 + Decitabine = compound: COc1cccc2cc(-c3nc([C@H]4CC[C@H](C(=O)O)CC4)n4ncnc(N)c34)[nH]c12 [OSI-027] + Nc1ncn([C@H]2C[C@H](O)[C@@H](CO)O2)c(=O)n1 [Decitabine] (partner 2 µM)
Summary of the method: as §1

Alpelisib + AZD7762 = compound: Cc1nc(NC(=O)N2CCC[C@H]2C(N)=O)sc1-c1ccnc(C(C)(C)C(F)(F)F)c1 [Alpelisib] + NC(=O)Nc1cc(-c2cccc(F)c2)sc1C(=O)N[C@H]1CCCNC1 [AZD7762] (partner 0.2 µM)
Summary of the method: as §1

| Cell Line | relative viability (Vemurafenib + Vorinostat; first compound 0.03162 µM) | relative viability (Vemurafenib + Vorinostat; first compound 0.1 µM) | relative viability (Vemurafenib + Vorinostat; first compound 0.3162 µM) | relative viability (Vemurafenib + Vorinostat; first compound 1 µM) | relative viability (OSI-027 + Dasatinib; first compound 0.01 µM) | relative viability (OSI-027 + Dasatinib; first compound 0.03162 µM) | relative viability (OSI-027 + Dasatinib; first compound 0.1 µM) | relative viability (OSI-027 + Dasatinib; first compound 0.3162 µM) | relative viability (OSI-027 + Dasatinib; first compound 1 µM) | relative viability (OSI-027 + Decitabine; first compound 0.01 µM) | relative viability (OSI-027 + Decitabine; first compound 0.03162 µM) | relative viability (OSI-027 + Decitabine; first compound 0.1 µM) | relative viability (OSI-027 + Decitabine; first compound 0.3162 µM) | relative viability (OSI-027 + Decitabine; first compound 1 µM) | relative viability (Alpelisib + AZD7762; first compound 0.04 µM) | relative viability (Alpelisib + AZD7762; first compound 0.1265 µM) | relative viability (Alpelisib + AZD7762; first compound 0.4 µM) | relative viability (Alpelisib + AZD7762; first compound 1.265 µM) | relative viability (Alpelisib + AZD7762; first compound 4 µM) |
| --- | --- | --- | --- | --- | --- | --- | --- | --- | --- | --- | --- | --- | --- | --- | --- | --- | --- | --- | --- |
| NCI-H661 | 0.73 | 0.72 | 0.803 | 0.749 | 0.664 | 0.989 | 0.708 | 0.602 | 0.383 | 0.521 | 0.522 | 0.491 | 0.417 | 0.327 |  |  |  |  |  |
| NCI-H1563 |  |  |  |  | 0.444 | 0.467 | 0.447 | 0.457 | 0.454 |  |  |  |  |  |  |  |  |  |  |
| NCI-H1623 |  |  |  |  | 0.52 | 0.607 | 0.455 | 0.365 | 0.275 |  |  |  |  |  |  |  |  |  |  |
| NCI-H1648 |  | 0.315 | 0.706 | 0.546 |  |  |  |  |  | 0.477 | 0.51 |  | 0.445 | 0.45 | 0.581 | 0.591 | 0.821 | 0.62 | 0.521 |
| NCI-H1650 | 0.466 | 0.477 | 0.682 | 0.485 | 0.313 | 0.347 | 0.255 | 0.279 | 0.229 | 0.454 | 0.45 | 0.471 | 0.308 | 0.314 |  |  |  |  |  |
| NCI-H1703 |  |  |  |  |  |  |  |  |  |  |  |  |  |  | 0.0965 | 0.129 | 0.125 | 0.103 | 0.116 |
| NCI-H1792 |  |  |  |  | 0.664 | 0.617 | 0.818 | 0.7 | 0.211 | 0.587 | 0.434 | 0.56 | 0.499 | 0.135 | 0.59 | 0.534 | 0.783 | 0.465 | 0.36 |
| NCI-H2009 | 0.813 | 0.731 | 0.715 | 0.665 | 0.271 | 0.264 | 0.248 | 0.213 | 0.207 | 0.418 | 0.354 | 0.339 | 0.36 | 0.295 |  |  |  |  |  |
| NCI-H2023 | 0.531 | 0.662 | 0.57 | 0.584 | 0.588 | 0.621 | 0.505 | 0.338 | 0.192 | 0.202 | 0.213 | 0.2 | 0.207 | 0.149 |  |  |  |  |  |
| NCI-H2228 | 0.457 | 0.536 | 0.589 | 0.595 | 0.506 | 0.467 | 0.568 | 0.445 | 0.24 |  |  |  |  |  |  |  |  |  |  |
| SK-LU-1 | 0.699 | 0.687 | 0.535 | 0.835 | 0.169 | 0.172 | 0.178 | 0.127 | 0.134 | 0.594 | 0.631 | 0.663 | 0.483 | 0.406 |  |  |  |  |  |
| SK-MES-1 | 1.06 |  | 0.949 | 1.01 | 0.293 | 0.407 | 0.295 | 0.25 | 0.247 | 0.362 | 0.36 | 0.304 | 0.307 | 0.223 |  |  |  |  |  |
| SW 1573 | 0.655 | 0.767 | 0.473 | 0.537 | 0.379 | 0.456 | 0.477 | 0.494 | 0.331 | 0.411 | 0.535 | 0.438 | 0.388 | 0.284 |  |  |  |  |  |
